We go through 2 molecules from article PMC11326411, “PET imaging of [52 Mn]Mn-DOTATATE and [52 Mn]Mn-DOTA-JR11” (Research Square, 2024).

As a reminder, the tissue uptake is the percentage of the injected dose found per gram of tissue.

One data set deals with SSTR2 + AR42J cells. Description: Cell uptake in AR42J cells. The class given is cell-based, rat. Here is the method:
(§1) 1×10^5 AR42J, A549, and MCF-7 cells were seeded onto 24-well plates (n = 6) and incubated at 37°C 48 h before study. […] The cells were incubated at 37°C under 5% CO2 for 2 h. Following incubation, the media was removed, and the cells were washed 3 times with ice-cold PBS. 500 μL of 0.2 M NaOH was added to detach the cells before collection into microcentrifugetubes followed by a 500 μL wash of PBS. Associated radioactivity was counted on a HIDEX (Turku, Finland) AGM gamma counter.
(§2) To normalize the counts to the total protein amount, a BCA protein assay (ThermoFisher Scientific) was performed, and the final data reported in % cell uptake/mg of protein.

Another data set relates to AR42J cells. Description: Cell internalization assay in AR42J cells. Type of data set: cell-based, rat. Particulars: for internalization fraction (of total activity): 2 h incubation. Here is the method:
At each time point, the media was removed, and cells were washed 3 times with ice-cold PBS. To determine the surface bound fraction, 0.5 mL of 0.1 M citric acid (pH 5) was added to each well and incubated for 5 min. The fraction was collected into a microcentrifuge tube followed by addition of 0.5 mL gentle wash of PBS. To determine the internalized activity, 0.5 mL of 0.2 M NaOH was added to each well and incubated at 37°C for 5 min. This fraction was collected in a separate tube followed by addition of 0.5 mL of PBS wash. The final results were expressed as a percentage of the total activity that was present in each of the two fractions.

A further data set concerns A549 cells. Briefly: Cell uptake in A549 cells. Type of data set: cell-based, human. Particulars: A549, 0.5 nM, 2 h, 37°C, per mg protein; Fig. 3A study. Here is the method: as §1, §2
Another data set concerns MCF-7 cells. Briefly: Cell uptake in MCF-7 cells. Type of data set: cell-based, human. Particulars: MCF-7, 0.5 nM, 2 h, 37°C, per mg protein; Fig. 3A study. Here is the method: as §1, §2
A short description of data set [1]: Stability of the radioligands in mouse serum. Particulars: 37°C, 5 days post incubation, radio-TLC.
Description: At the specified time points, 40 μL of serum/radioligand mixture was collected and combined with an equal amount of methanol to separate serum proteins, as described in a previously published protocol on metabolite extraction and protein removal [19]. The supernatant was analyzed using both radio TLC and radio HPLC, as described above to determine the percentage intact complex.
A short description of a further data set: in vivo. Particulars: mouse, total radioactivity, Biodistribution.
[2] abbreviates: 2 h incubation at 37°C, comparative study Fig. 4A.

SMILES strings stand for the structures. Where a SMILES comes first, the peptide text is derived from it. Bridges are numbered along the chain shown (N, C = ends). [ ]: non-standard residue; d: D form. The star is where a group is joined. DOTA = O=C(O)CN1CCN(CC(=O)O)CCN(CC(=O)*)CCN(CC(=O)O)CC1; dPhe(4-NHCONH2) = NC(=O)Nc1ccc(C[C@@H](N)C(=O)O)cc1; Dihydroorotyl(S) = O=C1C[C@@H](C(=O)*)NC(=O)N1; Phe(4-Cl) = N[C@@H](Cc1ccc(Cl)cc1)C(=O)O; Phe(4-NH2) = Nc1ccc(C[C@H](N)C(=O)O)cc1

Description for in vivo: Subcutaneous tumor xenograft models for AR42J were established by implanting 1×10^6 cells in complete cell media subcutaneously into the right shoulder 3–4 weeks (tumor average diameter of between 5–7 mm) before study.
Mice (n = 4 per group) were anesthetized with 2.5% isoflurane in oxygen and were injected via the retroorbital sinus. After injection, at 4, 24, and 48 h, mice were imaged on a Sofie GNEXT PET/CT small animal scanner (Sofie Biosciences, Dulles, VA, USA). At each time point, 30 min of PET data were acquired followed by a 3-min CT at 80 kVp for anatomical reference. At each time point post imaging, mice were euthanized, and organs were collected, weighed, and counted for associated radioactivity on gamma counter. Radioactivity uptake was calculated as the percent injected dose per gram of tissue (% ID/g).

Turning to `C[C@@H](O)[C@@H]1NC(=O)[C@H](CCCCN)NC(=O)[C@@H](Cc2ccc(NC(N)=O)cc2)NC(=O)[C@H](Cc2ccc(NC(=O)[C@@H]3CC(=O)NC(=O)N3)cc2)NC(=O)[C@H](NC(=O)[C@H](Cc2ccc(Cl)cc2)NC(=O)CN2CCN(CC(=O)O)CCN(CC(=O)O)CCN(CC(=O)O)CC2)CSSC[C@@H](C(=O)N[C@H](Cc2ccc(O)cc2)C(N)=O)NC1=O` [[^52Mn]Mn-DOTA-JR11] ({DOTA}-[Phe(4-Cl)][dC][Phe(4-NH2)](Dihydroorotyl(S))[dPhe(4-NHCONH2)]KTC[dY]-NH2; disulfide 2-7 (inferred); C-terminus assumed), the cell uptake in the data set on SSTR2 + AR42J cells (setting [2]) stood at 7.13 ± 0.38 %/ mg. For the same molecule, in the data set with AR42J cells, the total activity internalized is given as 20.85 ± 0.59% and the “internalization fraction (of total activity)” value is 20.85 ± 0.59%.

In the case of `C[C@@H](O)[C@H](NC(=O)[C@@H]1CSSC[C@H](NC(=O)[C@@H](Cc2ccccc2)NC(=O)CN2CCN(CC(=O)O)CCN(CC(=O)O)CCN(CC(=O)O)CC2)C(=O)N[C@@H](Cc2ccc(O)cc2)C(=O)N[C@H](Cc2c[nH]c3ccccc23)C(=O)N[C@@H](CCCCN)C(=O)N[C@@H]([C@@H](C)O)C(=O)N1)C(=O)O` [[^52Mn]Mn-DOTATATE], the cell uptake with A549 cells is given as 4.07 ± 0.88 % /mg; in the data set on SSTR2 + AR42J cells (0.5 nM, 2 h, 37°C, per mg protein, Fig. 3A study), 18.25 ± 1.31 % /mg; with SSTR2 + AR42J cells (setting [2]) it was 11.95 ± 0.71 %/ mg; in the data set on MCF-7 cells, 2.30 ± 0.20 % /mg. The molecule further gave a total activity internalized in the data set with AR42J cells of 53.13 ± 1.83%. For the same molecule, the “internalization fraction (of total activity)” value in the data set with AR42J cells stood at 53.13 ± 1.83%. For the same molecule, the intact complex in data set [1] is listed as more than 95%. Further, the tissue uptake at 4 h was 0.91 ± 0.05 %ID/g in the data set “in vivo” (Blood (μL)), 0.52 ± 0.19 %ID/g in “in vivo” (Fat) and 1.32 ± 0.46 %ID/g in “in vivo” (Small Intestines).
